15 molecules from PubChem BioAssay (NCI) can be followed below.

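Values below derive from 48-hour exposures of cells grown in 96-well plates, with endpoints linearly interpolated between the two concentrations bracketing the appropriate inhibition level. The concentration for 50% growth inhibition is given as GI50. TGI: total growth inhibition.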

Test systems include SNB-19 CNS; HOP-92 NSCLC; SK-MEL-28 melanoma; SK-MEL-5 melanoma; IGROV1 ovarian; OVCAR-5 ovarian; MCF7 breast; MDA-MB-231 breast; RPMI-8226 leukemia; MDA-N.
What all share (assay): NCI anticancer screen, dose series, 48 h

In the case of `NCCCCNCCCN`, the TGI with SNB-19 CNS, in the assay on HOP-92 NSCLC, in the assay with SK-MEL-28 melanoma, with SK-MEL-5 melanoma, with IGROV1 ovarian and in the assay with OVCAR-5 ovarian was above 100 µM in each case. Besides, the TGI with MCF7 breast and in the assay with MDA-MB-231 breast was above 100 µM each time.
As to `CC1(C)Oc2ccc(Cl)cc2C12CC2`, the TGI was 31.5 µM in the assay on SNB-19 CNS; 41.7 µM in the assay on SK-MEL-28 melanoma; 38.6 µM in the assay with SK-MEL-5 melanoma; 28.7 µM in the assay on IGROV1 ovarian; above 100 µM in the assay with RPMI-8226 leukemia; 34.2 µM in the assay on OVCAR-5 ovarian. For the same molecule, the TGI in the assay with MDA-N worked out at 35.9 µM; in the assay on MCF7 breast, 33.3 µM; with MDA-MB-231 breast, 47.6 µM.
For the molecule `Oc1c(I)cc(I)cc1CNCCCN(Cc1ccccn1)Cc1ccccn1`, the GI50 was 1490 nM in the assay on SNB-19 CNS; 985 nM in the assay on HOP-92 NSCLC; 1220 nM in the assay with SK-MEL-28 melanoma; 886 nM with SK-MEL-5 melanoma; 866 nM with IGROV1 ovarian; 1340 nM with RPMI-8226 leukemia. Moreover, the GI50 in the assay on OVCAR-5 ovarian is 953 nM; in the assay on MCF7 breast, 1200 nM; in the assay with MDA-MB-231 breast, 1010 nM. Further, the TGI in the assay on SNB-19 CNS worked out at 5.5 µM; in the assay with HOP-92 NSCLC it was 2.48 µM; in the assay on SK-MEL-28 melanoma, 3.16 µM; in the assay on SK-MEL-5 melanoma it was 1.59 µM; in the assay with IGROV1 ovarian, 1.65 µM; in the assay on RPMI-8226 leukemia, 4.47 µM. The TGI with OVCAR-5 ovarian was 2.11 µM; in the assay on MCF7 breast, 3.59 µM; with MDA-MB-231 breast it was 2.12 µM.
Regarding `C=C(C)CC1=C(C(=S)NCCO[Si](C)(C)C(C)(C)C)C(OCC)(OCC)C1=O`, the TGI with SNB-19 CNS is 38.3 µM; in the assay on HOP-92 NSCLC, above 100 µM; with SK-MEL-28 melanoma, 34.6 µM; with SK-MEL-5 melanoma, 51 µM; with IGROV1 ovarian, 31.3 µM; in the assay with OVCAR-5 ovarian, 28.5 µM. Further, the TGI with MDA-N worked out at 43.2 µM; in the assay with MCF7 breast, 35.9 µM; in the assay on MDA-MB-231 breast it was 67.5 µM.
Regarding `CC1NOC(NS(=O)(=O)c2ccc(N=Nc3c(O)c(C(=O)O)cc4ccccc34)cc2)C1C` (centres undefined), the TGI in the assay on SNB-19 CNS, with HOP-92 NSCLC, with SK-MEL-28 melanoma, with SK-MEL-5 melanoma, with IGROV1 ovarian and in the assay with RPMI-8226 leukemia was above 100 µM throughout. The TGI with OVCAR-5 ovarian, with MCF7 breast and with MDA-MB-231 breast was above 100 µM each time.
On to `Cc1ccc(S(=O)(=Nc2ccccc2)C(C(C)C)C(C)(C)Cl)cc1` (centres undefined), for which the TGI with SNB-19 CNS is above 50 µM; in the assay with HOP-92 NSCLC it was above 50 µM; in the assay with SK-MEL-5 melanoma it was 16.7 µM; in the assay with IGROV1 ovarian it was above 50 µM; in the assay on RPMI-8226 leukemia, above 50 µM; in the assay with OVCAR-5 ovarian, above 50 µM. Also, the TGI with MDA-N, with MCF7 breast and in the assay with MDA-MB-231 breast was above 50 µM throughout.
Take `Cc1cc2nc3n(c2cc1C)C(c1c(F)cccc1F)SC3` (centres undefined): the TGI in the assay on SNB-19 CNS is 53.4 µM; in the assay on SK-MEL-28 melanoma, 40.2 µM; in the assay on SK-MEL-5 melanoma, 28.2 µM; in the assay with IGROV1 ovarian, above 10 µM; with RPMI-8226 leukemia, 58.5 µM; with OVCAR-5 ovarian, 43 µM. The TGI turned out to be 34.2 µM in the assay with MCF7 breast and 41.4 µM in the assay on MDA-MB-231 breast.
Consider `N=C1N=C(N)c2cc3c(cc21)SCCSCCCSCCS3`, for which the TGI is 32.3 µM in the assay on SNB-19 CNS; above 54.7 µM with HOP-92 NSCLC; 31.4 µM in the assay with SK-MEL-28 melanoma; 31.7 µM with SK-MEL-5 melanoma; 38.4 µM with IGROV1 ovarian; 40.3 µM with OVCAR-5 ovarian. Besides, the results for the TGI in the assay with MDA-N, in the assay on MCF7 breast and with MDA-MB-231 breast were 33.8 µM, above 55.7 µM and 39.6 µM, respectively.
As for `CC(=O)c1ccc(NC(=O)/C(=N\NC(N)=O)C(C#N)CC(C)(C)C=O)cc1` (centres undefined), the TGI in the assay on SNB-19 CNS, in the assay on HOP-92 NSCLC, with SK-MEL-28 melanoma, in the assay with SK-MEL-5 melanoma, in the assay on IGROV1 ovarian and with RPMI-8226 leukemia was above 100 µM in each case. Further, the TGI in the assay with OVCAR-5 ovarian was above 100 µM.
With `Cc1ccnc(NC(=S)Nc2ccccc2Cl)c1`, the TGI in the assay on SNB-19 CNS, in the assay on SK-MEL-28 melanoma, with SK-MEL-5 melanoma, in the assay with IGROV1 ovarian, in the assay with RPMI-8226 leukemia and in the assay on OVCAR-5 ovarian was above 100 µM each time. The TGI with MDA-N is above 100 µM; in the assay with MCF7 breast, above 100 µM; in the assay on MDA-MB-231 breast, 45.7 µM.
On to `CC(=O)c1ccc2c(c1)oc(=O)n2CCN(C)C`, for which the TGI in the assay with SK-MEL-28 melanoma, with IGROV1 ovarian, with OVCAR-5 ovarian, with MCF7 breast and in the assay with MDA-MB-231 breast was above 100 µM throughout.
As to `c1ccc([C@H]2CN3CCSC3=N2)cc1`, the TGI with SNB-19 CNS, in the assay on HOP-92 NSCLC, with SK-MEL-28 melanoma, in the assay with SK-MEL-5 melanoma, with IGROV1 ovarian and with OVCAR-5 ovarian was above 100 µM throughout. Further, the TGI in the assay with MDA-N, in the assay on MCF7 breast and in the assay on MDA-MB-231 breast was above 100 µM in each case.
`Cc1cc(S(=O)(=O)O)ccc1N=Nc1ccc(N=Nc2c(O)ccc3ccccc23)c(C)c1`: the TGI with SNB-19 CNS, in the assay on HOP-92 NSCLC, in the assay with SK-MEL-28 melanoma, with SK-MEL-5 melanoma, in the assay on IGROV1 ovarian and in the assay on RPMI-8226 leukemia was above 100 µM throughout. Also, the TGI in the assay with OVCAR-5 ovarian, with MDA-N and in the assay with MDA-MB-231 breast was above 100 µM in each case.
On to `CC(=O)Oc1ccc(OC(Oc2ccccc2)c2ccccc2)cc1` (centres undefined), for which the TGI with SNB-19 CNS was 77.5 µM; in the assay on HOP-92 NSCLC, 34.9 µM; with SK-MEL-28 melanoma, 69 µM; in the assay with IGROV1 ovarian, above 100 µM; with OVCAR-5 ovarian, above 100 µM; in the assay with MDA-N, 42.2 µM. Further, the results for the TGI with MCF7 breast and in the assay with MDA-MB-231 breast were 82.2 µM and 48.8 µM, respectively.
Take `CCN(CC)C(=S)SNCCc1ccc(S(N)(=O)=O)cc1`: the TGI in the assay on SNB-19 CNS was found to be 50.9 µM; with HOP-92 NSCLC, 35.1 µM; in the assay with SK-MEL-28 melanoma, 25.8 µM; in the assay on SK-MEL-5 melanoma, 24.4 µM; in the assay with RPMI-8226 leukemia it was 38.6 µM; in the assay with OVCAR-5 ovarian it was 30.4 µM. Moreover, the TGI in the assay on MDA-N came to 40.6 µM; in the assay on MDA-MB-231 breast, 30.4 µM.
